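Interpolation was linear, between the two tested concentrations surrounding the appropriate level; five concentrations were tested over 48 hours in 96-well plates. Here, GI50 denotes the concentration required for 50% inhibition of growth. TGI denotes the concentration required for complete inhibition of growth.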
Legend:
Experiment in all cases: inhibition of tumour cell growth, NCI panel, 48 h
[1] = tested on: UACC-257 melanoma
[2] = tested on: CAKI-1 renal
[3] = tested on: U251 CNS
[4] = tested on: SK-MEL-5 melanoma
[5] = tested on: OVCAR-8 ovarian
[6] = tested on: NCI-H23 lung
[7] = tested on: SF-268 CNS
[8] = tested on: SN12C renal
[9] = tested on: 786-0 renal
[10] = tested on: OVCAR-4 ovarian
[11] = tested on: CCRF-CEM leukemia
[12] = tested on: HS 578T breast
[13] = tested on: HCT-116 colon
[14] = tested on: HOP-92 NSCLC
[15] = tested on: DU-145 prostate
[16] = tested on: T-47D breast
[17] = tested on: SF-539 CNS
[18] = tested on: UO-31 renal
[19] = tested on: SR leukemia
[20] = tested on: EKVX NSCLC
[21] = tested on: A498 renal
[22] = tested on: TK-10 renal
[23] = tested on: HCT-15 colon
[24] = tested on: SF-295 CNS
[25] = tested on: MCF7 breast
[26] = tested on: COLO 205 colon
[27] = tested on: LOX IMVI melanoma
[28] = tested on: SK-OV-3 ovarian
[29] = tested on: OVCAR-5 ovarian
[30] = tested on: HOP-62 NSCLC
[31] = tested on: HL-60(TB) leukemia
[32] = tested on: BT-549 breast
[33] = tested on: MALME-3M melanoma
[34] = tested on: RXF 393 renal
[35] = tested on: NCI-H460 lung
[36] = tested on: ACHN renal
[37] = tested on: MOLT-4 leukemia
[38] = tested on: MDA-MB-435
[39] = tested on: NCI-H522 lung
[40] = tested on: MDA-MB-231 breast
[41] = tested on: NCI-H226 lung
[42] = tested on: HCC-2998 colon
[43] = tested on: SNB-75 CNS
[44] = tested on: HT29 colon
[45] = tested on: KM12 colon
[46] = tested on: SW-620 colon
[47] = tested on: K-562 leukemia
[48] = tested on: RPMI-8226 leukemia
[49] = tested on: MDA-MB-468 breast
[50] = tested on: A549 NSCLC
[51] = tested on: SNB-19 CNS
[52] = tested on: PC-3 prostate
[53] = tested on: SK-MEL-2 melanoma
[54] = tested on: IGROV1 ovarian
[55] = tested on: UACC-62 melanoma
[56] = tested on: NCI/ADR-RES ovarian
[57] = tested on: SK-MEL-28 melanoma
[58] = tested on: OVCAR-3 ovarian
[59] = tested on: M14 melanoma

Which GI50 [1] does the source give for CN1CCN(c2ccc3c(c2)nc(NNC(=O)c2ncccn2)c2cccn23)CC1 here?
The GI50 was 2280 nM.

What about the TGI [1] of the same compound?
Its TGI is 6250 nM.

And the GI50 [2]?
The GI50 was 782 nM.

And the TGI [2]?
The TGI was 7620 nM.

What about the GI50 [3] of the same compound?
Its GI50 is 514 nM.

What about the TGI [3] of the same compound?
Its TGI is 3940 nM.

And the GI50 [4]?
Its GI50 is 1160 nM.

And the TGI [4]?
Its TGI is 3170 nM.

And the GI50 [5]?
The GI50 was 655 nM.

What about the TGI [5] of the same compound?
Its TGI is 2380 nM.

And the GI50 [6]?
The GI50 was 1890 nM.

What about the TGI [6] of the same compound?
The TGI was 10100 nM.

What about the GI50 [7] of the same compound?
The GI50 was 594 nM.

What about the TGI [7] of the same compound?
Its TGI is 11900 nM.

What about the GI50 [8] of the same compound?
Its GI50 is 1390 nM.

What about the TGI [8] of the same compound?
The TGI was 10800 nM.

What about the GI50 [9] of the same compound?
The GI50 was 795 nM.

And the TGI [9]?
Its TGI is 2110 nM.

And the GI50 [10]?
Its GI50 is 725 nM.

And the TGI [10]?
Its TGI is 4100 nM.

And the GI50 [11]?
Its GI50 is 224 nM.

And the TGI [11]?
The TGI was 2100 nM.

And the GI50 [12]?
Its GI50 is 3010 nM.

What about the TGI [12] of the same compound?
The TGI was 34500 nM.

And the GI50 [13]?
The GI50 was 347 nM.

And the TGI [13]?
The TGI was 2610 nM.

And the GI50 [14]?
Its GI50 is 482 nM.

What about the TGI [14] of the same compound?
The TGI was 2460 nM.

And the GI50 [15]?
The GI50 was 1250 nM.

And the TGI [15]?
Its TGI is 11000 nM.

What about the GI50 [16] of the same compound?
Its GI50 is 1660 nM.

What about the TGI [16] of the same compound?
The TGI was 5780 nM.

What about the GI50 [17] of the same compound?
Its GI50 is 1090 nM.

And the TGI [17]?
Its TGI is 4200 nM.

What about the GI50 [18] of the same compound?
Its GI50 is 677 nM.

What about the TGI [18] of the same compound?
Its TGI is 4070 nM.

And the GI50 [19]?
The GI50 was 433 nM.

And the TGI [19]?
The TGI was 11600 nM.

And the GI50 [20]?
Its GI50 is 529 nM.

And the TGI [20]?
The TGI was 3960 nM.

What about the GI50 [21] of the same compound?
The GI50 was 1720 nM.

What about the TGI [21] of the same compound?
The TGI was 3320 nM.

What about the GI50 [22] of the same compound?
The GI50 was 489 nM.

What about the TGI [22] of the same compound?
Its TGI is 3050 nM.

And the GI50 [23]?
The GI50 was 762 nM.

And the TGI [23]?
The TGI was 5250 nM.

And the GI50 [24]?
The GI50 was 622 nM.

What about the TGI [24] of the same compound?
Its TGI is 2960 nM.

And the GI50 [25]?
The GI50 was 1980 nM.

And the TGI [25]?
The TGI was 9750 nM.

What about the GI50 [26] of the same compound?
The GI50 was 476 nM.

And the TGI [26]?
The TGI was 1720 nM.

What about the GI50 [27] of the same compound?
The GI50 was 383 nM.

What about the TGI [27] of the same compound?
The TGI was 2640 nM.

What about the GI50 [28] of the same compound?
The GI50 was 459 nM.

What about the TGI [28] of the same compound?
Its TGI is 1830 nM.

What about the GI50 [29] of the same compound?
The GI50 was 1370 nM.

And the TGI [29]?
Its TGI is 5800 nM.

What about the GI50 [30] of the same compound?
The GI50 was 453 nM.

What about the TGI [30] of the same compound?
The TGI was 3200 nM.

What about the GI50 [31] of the same compound?
Its GI50 is 556 nM.

What about the TGI [31] of the same compound?
The TGI was 4820 nM.

And the GI50 [32]?
Its GI50 is 856 nM.

And the TGI [32]?
Its TGI is 2820 nM.

What about the GI50 [33] of the same compound?
The GI50 was 1380 nM.

What about the TGI [33] of the same compound?
Its TGI is 4290 nM.

And the GI50 [34]?
The GI50 was 1430 nM.

What about the TGI [34] of the same compound?
Its TGI is 3990 nM.

And the GI50 [35]?
The GI50 was 1220 nM.

What about the TGI [35] of the same compound?
Its TGI is 10500 nM.

And the GI50 [36]?
Its GI50 is 712 nM.

What about the TGI [36] of the same compound?
Its TGI is 6010 nM.

What about the GI50 [37] of the same compound?
Its GI50 is 435 nM.

What about the TGI [37] of the same compound?
Its TGI is 15600 nM.

What about the GI50 [38] of the same compound?
Its GI50 is 1780 nM.

And the TGI [38]?
Its TGI is 13500 nM.

What about the GI50 [39] of the same compound?
The GI50 was 927 nM.

And the TGI [39]?
The TGI was 5310 nM.

And the GI50 [40]?
The GI50 was 902 nM.

And the TGI [40]?
Its TGI is 3990 nM.

And the GI50 [41]?
Its GI50 is 929 nM.

What about the TGI [41] of the same compound?
The TGI was 2630 nM.

And the GI50 [42]?
Its GI50 is 706 nM.

What about the TGI [42] of the same compound?
The TGI was 3000 nM.

And the GI50 [43]?
The GI50 was 610 nM.

And the TGI [43]?
The TGI was 11400 nM.

What about the GI50 [44] of the same compound?
Its GI50 is 628 nM.

What about the TGI [44] of the same compound?
The TGI was 2340 nM.

And the GI50 [45]?
The GI50 was 630 nM.

And the TGI [45]?
The TGI was 12800 nM.

What about the GI50 [46] of the same compound?
The GI50 was 855 nM.

And the TGI [46]?
Its TGI is 3830 nM.

What about the GI50 [47] of the same compound?
The GI50 was 1880 nM.

What about the TGI [47] of the same compound?
The TGI was over 32400 nM.

And the GI50 [48]?
Its GI50 is 2980 nM.

What about the TGI [48] of the same compound?
The TGI was 13300 nM.

What about the GI50 [49] of the same compound?
Its GI50 is 408 nM.

What about the TGI [49] of the same compound?
Its TGI is 1820 nM.

And the GI50 [50]?
Its GI50 is 1700 nM.

And the TGI [50]?
Its TGI is 11300 nM.

And the GI50 [51]?
The GI50 was 966 nM.

And the TGI [51]?
Its TGI is 12500 nM.

And the GI50 [52]?
Its GI50 is 344 nM.

What about the TGI [52] of the same compound?
The TGI was 4120 nM.

And the GI50 [53]?
The GI50 was 1280 nM.

And the TGI [53]?
Its TGI is 4210 nM.

And the GI50 [54]?
Its GI50 is 1670 nM.

And the TGI [54]?
The TGI was 11000 nM.

And the GI50 [55]?
The GI50 was 828 nM.

What about the TGI [55] of the same compound?
The TGI was 3450 nM.

What about the GI50 [56] of the same compound?
Its GI50 is 2570 nM.

What about the TGI [56] of the same compound?
The TGI was 9440 nM.

And the GI50 [57]?
Its GI50 is 849 nM.

What about the TGI [57] of the same compound?
The TGI was 9030 nM.

What about the GI50 [58] of the same compound?
Its GI50 is 704 nM.

And the TGI [58]?
Its TGI is 4420 nM.

What about the GI50 [59] of the same compound?
The GI50 was 611 nM.

What about the TGI [59] of the same compound?
The TGI was 3000 nM.
